Entries after “also recorded” stand apart in the source; their conditions may differ. Where two headings read alike, the source gives them in different places.
What was measured:
NF-κB = assay: TNF-α-induced NF-κB luciferase reporter assay in human embryonic kidney cells 293; assay type: cell-based; conditions: 293 cells, 6 h, read-out: NF-κB inhibition IC50
Method: We employed human embryonic kidney cells 293, Panomic for monitoring changes occurring along the NF-κB pathway. Stable constructed cells were seeded into 96-well plates at 20 × 10^3 cells per well. Cells were maintained in Dulbecco’s modified Eagle’s medium (DMEM) (Invitrogen Co.), supplemented with 10% FBS, 100 units/mL penicillin, 100 μg/mL streptomycin, and 2 mM L-glutamine. After 48 h incubation, the medium was replaced and the cells were treated with various concentrations of test substances. TNF-α (human, recombinant, E. coli, Calbiochem) was used as an activator at a concentration of 2 ng/mL (0.14 nM). The plate was incubated for 6 h. Spent medium was discarded, and the cells were washed once with PBS. Cells were lysed using 50 μL (for 96-well plate) of reporter lysis buffer from Promega by incubating for 5 min on a shaker, and stored at −80 °C. The luciferase assay was performed using the Luc assay system from Promega. The gene product, luciferase enzyme, reacts with luciferase substrate, emitting light, which was detected using a luminometer (LUMIstar Galaxy BMG). Data for NF-κB inhibition are expressed as IC50 values (i.e., concentration required to inhibit TNFinduced NF-kB activity by 50%). The known NF-κB inhibitor TPCK was used as a positive control.

[1] = Cytotoxicity under the same conditions as the NF-κB assay; assay type: cell-based; conditions: human
iNOS = assay: Nitric oxide (iNOS) assay in LPS-stimulated RAW 264.7 cells, Griess reagent; assay type: cell-based; conditions: Mus musculus, RAW264.7; lipopolysaccharide-stimulated (1 μg/mL, 20 h) RAW 264.7 cells, nitrite; read-out: iNOS inhibition IC50
Method: RAW 264.7 cells (1 × 10^4 cells/well) were seeded and incubated in 96-well culture plates at 37 °C, 5% CO2 in humidified air for 24 h. Then, complete medium was replaced with phenol red-free medium containing various concentrations of the test compounds, followed by LPS stimulation (1 μg/mL) for 20 h. The nitrite released in the culture media was reacted with Griess reagent, and the absorbance was measured at 540 nm. The amount of nitrite was calculated using a standard curve of known nitrite concentration versus absorbance at 540 nm. TPCK was used as a positive control. IC50 values were calculated using Table Curve 2D Windows V4.07 by AISN Software Inc[44].

[2] = Cytotoxicity in the iNOS assay; assay type: cell-based; conditions: mouse, RAW 264.7 cells
E. coli JW2496 (∆bamB) = assay: Antibacterial microbroth dilution assay; assay type: cell-based; conditions: 20 μg/mL (maximum test concentration)
Method: MIC values were determined against E. coli JW2496 (∆bamB) and other bacteria using the standard microbroth dilution method exactly as previously described, which is based on the methods by the Clinical and Laboratory Standards Institute[41], [42]. The maximum test concentration used was 20 μg/mL.

STAT3 = system: STAT3; parameters: method as in PMID 26107089, PMID 16928075; conditions: cited from earlier work
[3] = Homo sapiens, HEK293, TNF-α (2 ng/mL) induced NF-κB activity

CCCCC[C@@H]1OC2=C(C(=O)N(OC)[C@@H]2CSC[C@@H](O)C(=O)O)[C@H](O)[C@@]1(C)O [Compound 1, Paraphaeosphaeride E] showed an IC50 (NF-κB; [3]) of 7.1 µM, an IC50 at 6 h [1] greater than 50 µM and an IC50 (iNOS) of 47.9 ± 0.03 µM. The IC50 at 20 h [2] was greater than 50 µM and the “inhibition of E. coli JW2496” value (E. coli JW2496 (∆bamB)) was “mildly inhibited”.
With CCCCC[C@@H]1OC2=C(C(=O)N(OC)[C@@H]2CSC[C@@H](O)C(=O)O)[C@@H](O)[C@@]1(C)O [Compound 2, Paraphaeosphaeride F] the IC50 at 6 h [1] was greater than 50 µM, the IC50 (iNOS) was 43.2 ± 0.7 µM and the IC50 at 20 h [2] was greater than 50 µM.
With CCCCC[C@@H]1OC2=C(C(=O)N(OC)[C@@H]2C[S@+]([O-])C[C@@H](O)C(=O)O)[C@H](O)[C@@]1(C)O [Compound 3, Paraphaeosphaeride G] the IC50 (NF-κB; [3]) was 1.5 µM, the IC50 at 6 h [1] was greater than 50 µM and the IC50 (iNOS) was 16.1 ± 6.6 µM. The IC50 at 20 h [2] was greater than 50 µM.
For C=C1C2=C(C(=O)N1OC)[C@H](O)[C@@](C)(O)[C@H](CCCCC)O2 [phaeosphaeride A], the STAT3 inhibition (STAT3) is given as “showed STAT3 inhibition; also recorded: showed STAT3 inhibitory activity”.
For Cc1ccc(S(=O)(=O)N[C@@H](Cc2ccccc2)C(=O)CCl)cc1 [TPCK, N α-tosyl-l-phenylalanine chloromethyl ketone, reference compound], the IC50 (NF-κB; TNF-α (2 ng/mL) induced NF-κB activity) was 4.09 ± 0.12 µM.
